From patent US20240287076A1, “COMPOUNDS FOR TARGETING DEGRADATION OF BRUTON'S TYROSINE KINASE” (BIOGEN MA INC., priority 2021, published 2024)

The compounds below were run against T1, BTK (Homo sapiens, UniProt Q06187) (assay: BTK degradation assay using the HiBiT Method (Nano-Glo HiBiT Lytic Assay, GM01501.3 cells)). Details: HiBiT Degradation on GM01501.3 BTK @ 6 hours.
T1 construct: The GM01501.3 cell line endogenously expresses BTK with a HiBiT fusion tag via CRISPR knock-in at its C-terminal region; endogenous in cells; host or cells: GM01501.3 (GM01501 cells engineered by CRISPR knock-in of HiBiT at the BTK locus)
Assay type: cell-based
Method in brief: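 CRISPR knock-in GM01501.3 cells expressing endogenous BTK with C-terminal HiBiT tag, treated 6 h at 37 °C with compounds, 11-point half-log titration from 10 μM top, duplicates. Remaining BTK quantified by Nano-Glo HiBiT lytic luminescence versus DMSO controls; DC50 reported.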

T1 sequence (Q06187 whole entry, the tested form may be a part): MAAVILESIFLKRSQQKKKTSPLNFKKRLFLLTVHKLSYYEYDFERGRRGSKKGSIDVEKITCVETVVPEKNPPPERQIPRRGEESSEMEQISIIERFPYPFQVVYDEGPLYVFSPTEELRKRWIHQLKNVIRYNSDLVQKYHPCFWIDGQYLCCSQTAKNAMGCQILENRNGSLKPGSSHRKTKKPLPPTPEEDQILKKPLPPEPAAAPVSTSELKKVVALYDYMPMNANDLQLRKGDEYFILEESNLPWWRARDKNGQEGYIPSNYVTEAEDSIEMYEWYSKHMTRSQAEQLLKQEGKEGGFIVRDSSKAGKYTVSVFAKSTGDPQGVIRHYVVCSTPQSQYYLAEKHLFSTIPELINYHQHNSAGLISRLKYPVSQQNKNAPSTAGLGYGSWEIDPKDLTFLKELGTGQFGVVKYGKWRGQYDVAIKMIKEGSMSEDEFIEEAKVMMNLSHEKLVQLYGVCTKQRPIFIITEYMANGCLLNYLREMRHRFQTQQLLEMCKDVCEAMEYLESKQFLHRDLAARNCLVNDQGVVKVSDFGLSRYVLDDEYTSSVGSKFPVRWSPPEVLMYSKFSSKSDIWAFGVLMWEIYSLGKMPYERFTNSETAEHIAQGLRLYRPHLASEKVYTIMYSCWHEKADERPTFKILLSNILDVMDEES

Compared with `Cc1cc(-c2ncnn3cc(N4CCN(C(=O)c5ccccc5CNC(=O)c5ccc(OC6CCC(=O)NC6=O)cc5)CC4)cc23)ccc1CNC(=O)c1noc(C(C)(C)C)n1` (stereo not shown) [Example 193, 5-(tert-butyl)-N-(4-(6-(4-(2-((4-((2,6-dioxopiperidin-3-yl)oxy)benzamido)methyl)benzoyl)piperazin-1-yl)pyrrolo[2,1-f][1,2,4]triazin-4-yl)-2-methylbenzyl)-1,2,4-oxadiazole-3-carboxamide], `Cc1cc(-c2ncnn3cc(N4CCN(C(=O)c5ccc(CNC(=O)c6ccc(OC7CCC(=O)NC7=O)cc6)nc5)CC4)cc23)ccc1CNC(=O)c1noc(C(C)(C)C)n1` (stereo not shown) [Example 179, 5-(tert-butyl)-N-(4-(6-(4-(6-((4-((2,6-dioxopiperidin-3-yl)oxy)benzamido)methyl)nicotinoyl)piperazin-1-yl)pyrrolo[2,1-f][1,2,4]triazin-4-y1)-2-methylbenzyl)-1,2,4-oxadiazole-3-carboxamide] is higher in DC50: under 100 nM for the first, 100 to 500 nM for the second.

First: CC(C)(C)c1nc(C(=O)NCc2ccc(-c3ncnn4cc(-c5ccc(CN6CCc7ccc(OC8CCC(=O)NC8=O)cc7C6)cn5)cc34)cc2F)no1 (stereo not shown) [Example 226]
Second: Cc1cc(-c2ncnn3cc(-c4ccc5sc(CN6CCC(c7ccc(C8CCC(=O)NC8=O)cc7)CC6)cc5n4)cc23)ccc1CNC(=O)c1noc(C(C)(C)C)n1 (stereo not shown) [Example 218, 5-(tert-butyl)-N-(4-(6-(2-((4-(4-(2,6-dioxopiperidin-3-yl)phenyl)piperidin-1-yl)methyl)thieno[3,2-b]pyridin-5-yl)pyrrolo[2,1-f] [1,2,4]triazin-4-yl)-2-methylbenzyl)-1,2,4-oxadiazole-3-carboxamide]
The DC50 of the first is lower: under 100 nM for the first, 100 to 500 nM for the second.

`Cc1cc(-c2ncnn3cc(-c4ccc(OCCCCCCN5CCC(c6ccc(NC7CCC(=O)NC7=O)cc6)CC5)cc4)cc23)ccc1CNC(=O)c1noc(C(C)(C)C)n1` (stereo not shown) [Example 114, 5-tert-butyl-N-[[4-[6-[4-[6-[4-[4-[(2,6-dioxo-3-piperidyl)amino]phenyl]-1-piperidyl]hexoxy]phenyl]pyrrolo[2,1-f][1,2,4]triazin-4-yl]-2-methyl-phenyl]methyl]-1,2,4-oxadiazole-3-carboxamide] and `Cc1cc(-c2ncnn3cc(-c4ccc(OCCCCN5CCC(c6ccc(NC7CCC(=O)NC7=O)cc6)CC5)cc4)cc23)ccc1CNC(=O)c1nc(C(C)(C)C)ns1` (stereo not shown) [Example 112, 3-tert-butyl-N-[[4-[6-[4-[4-[4-[4-[(2,6-dioxo-3-piperidyl)amino]phenyl]-1-piperidyl]butoxy]phenyl]pyrrolo[2,1-f][1,2,4]triazin-4-yl]-2-methyl-phenyl]methyl]-1,2,4-thiadiazole-5-carboxamide] cannot be ordered by DC50: under 100 nM for the first, under 100 nM for the second.

`Cc1cc(-c2ncnn3cc(-c4ccc(OCCN5CCC(c6ccc(C7CCC(=O)NC7=O)cc6)CC5)cc4)cc23)ccc1CNC(=O)c1noc(C(C)(C)C)n1` (stereo not shown) [Example 104, 5-tert-butyl-N-[[4-[6-[4-[2-[4-[4-(2,6-dioxo-3-piperidyl)phenyl]-1-piperidyl]ethoxy]phenyl]pyrrolo[2,1-f][1,2,4]triazin-4-yl]-2-methyl-phenyl]methyl]-1,2,4-oxadiazole-3-carboxamide] and `Cc1cc(-c2ncnn3cc(CCC(F)(F)CN4CCC(c5ccc(C6CCC(=O)NC6=O)cc5)CC4)cc23)ccc1CNC(=O)c1noc(C(C)(C)C)n1` (stereo not shown) [Example 168, 5-tert-butyl-N-[[4-[6-[4-[4-[4-(2,6-dioxo-3-piperidyl)phenyl]-1-piperidyl]-3,3-difluoro-butyl]pyrrolo[2,1-f][1,2,4]triazin-4-yl]-2-methyl-phenyl]methyl]-1,2,4-oxadiazole-3-carboxamide] cannot be ordered by DC50: under 100 nM for the first, under 100 nM for the second.

`Cc1cc(-c2ncnn3cc(CCN4CCC(c5ccc6c(N7CCC(=O)NC7=O)nn(C)c6c5F)CC4)cc23)ccc1CNC(=O)c1noc(C(C)(C)C)n1` [Example 259, 5-(tert-butyl)-N-(4-(6-(2-(4-(3-(2,4-dioxotetrahydropyrimidin-1(2H)-yl)-7-fluoro-1-methyl-1H-indazol-6-yl)piperidin-1-yl)ethyl)pyrrolo[2,1-f][1,2,4]triazin-4-yl)-2-methylbenzyl)-1,2,4-oxadiazole-3-carboxamide] and `Cc1cc(-c2ncnn3cc(CCN4CCC(c5ccc(NC6CCC(=O)NC6=O)cn5)CC4)cc23)ccc1CNC(=O)c1noc(C(C)(C)C)n1` (stereo not shown) [Example 252, 5-(tert-butyl)-N-(4-(6-(2-(4-(5-((2,6-dioxopiperidin-3-yl)amino)pyridin-2-yl)piperidin-1-yl)ethyl)pyrrolo[2,1-f][1,2,4]triazin-4-yl)-2-methylbenzyl)-1,2,4-oxadiazole-3-carboxamide] cannot be ordered by DC50: under 100 nM for the first, under 100 nM for the second.

`CCc1ccc(C(=O)NCc2ccc(-c3ncnn4cc(-c5ccc(CN6CCC(c7ccc(NC8CCC(=O)NC8=O)cc7)CC6)cc5)cc34)cc2C)cc1` (stereo not shown) [Example 67, N-[[4-[6-[4-[[4-[4-[(2,6-dioxo-3-piperidyl)amino]phenyl]-1-piperidyl]methyl]phenyl]pyrrolo[2,1-f][1,2,4]triazin-4-yl]-2-methyl-phenyl]methyl]-4-ethyl-benzamide] and `Cc1cc(-c2ncnn3cc(-c4ccc(CN5CCC(c6ccc(NC7CCC(=O)NC7=O)cc6)CC5)cc4)cc23)ccc1CNC(=O)c1ccc(C(C)C)cn1` (stereo not shown) [Example 89, N-[[4-[6-[4-[[4-[4-[(2,6-dioxo-3-piperidyl)amino]phenyl]-1-piperidyl]methyl]phenyl]pyrrolo[2,1-f][1,2,4]triazin-4-yl]-2-methyl-phenyl]methyl]-5-isopropyl-pyridine-2-carboxamide] cannot be ordered by DC50: under 100 nM for the first, under 100 nM for the second.

First: Cc1cc(-c2ncnn3cc(-c4ccc(CN5CCC(c6ccc(NC7CCC(=O)NC7=O)cc6)CC5)cc4)cc23)ccc1CNC(=O)COCC(C)(C)C (stereo not shown) [Example 70, 2-(2,2-dimethylpropoxy)-N-[[4-[6-[4-[[4-[4-[(2,6-dioxo-3-piperidyl)amino]phenyl]-1-piperidyl]methyl]phenyl]pyrrolo[2,1-f][1,2,4]triazin-4-yl]-2-methyl-phenyl]methyl]acetamide]
Second: Cc1cc(-c2ncnn3cc(CCCCc4ccc(-c5ccc(C6CCC(=O)NC6=O)cc5)cc4)cc23)ccc1CNC(=O)c1noc(C(C)(C)C)n1 (stereo not shown) [Example 151, 5-tert-butyl-N-[[4-[6-[4-[4-[4-(2,6-dioxo-3-piperidyl)phenyl]phenyl]butyl]pyrrolo[2,1-f][1,2,4]triazin-4-yl]-2-methyl-phenyl]methyl]-1,2,4-oxadiazole-3-carboxamide]
The DC50 of the first is lower: under 100 nM for the first, 100 to 500 nM for the second.

First: Cc1cc(-c2ncnn3cc(N4CCN(C(=O)CC5CCCCN5C(=O)c5ccc(OC6CCC(=O)NC6=O)cc5)CC4)cc23)ccc1CNC(=O)c1noc(C(C)(C)C)n1 (stereo not shown) [Example 176, 5-(tert-butyl)-N-(4-(6-(4-(2-(1-(4-((2,6-dioxopiperidin-3-yl)oxy)benzoyl)piperidin-2-yl)acetyl)piperazin-1-yl)pyrrolo[2,1-f][1,2,4]triazin-4-yl)-2-methylbenzyl)-1,2,4-oxadiazole-3-carboxamide]
Second: Cc1cc(-c2ncnn3cc(N4CCN(C(=O)C5CC6(CCCN6C(=O)c6ccc(OC7CCC(=O)NC7=O)cc6)C5)CC4)cc23)ccc1CNC(=O)c1noc(C(C)(C)C)n1 (stereo not shown) [Example 186, 5-(tert-butyl)-N-(4-(6-(4-(5-(4-((2,6-dioxopiperidin-3-yl)oxy)benzoyl)-5-azaspiro[3.4]octane-2-carbonyl)piperazin-1-yl)pyrrolo[2,1-f][1,2,4]triazin-4-yl)-2-methylbenzyl)-1,2,4-oxadiazole-3-carboxamide]
The DC50 of the first is higher: 100 to 500 nM for the first, under 100 nM for the second.
